Earlier results as cited in patent US5723589A, “Carbohydrate conjugated bio-active compounds” (ICN Pharmaceuticals, priority 1995, dated 1998).

What was measured:
blood brain barrier = conditions: concentrated solutions infused into the carotid arteries; cited from earlier work
[1] = system: GLUT-1 in normal 3T3 fibroblasts; conditions: Endocrinology 1990, 126, 2778; cited from earlier work
GLUT-1 in cancer cells = conditions: inhibition of GLUT-1 functioning by binding; cited from earlier work

Compound: OC[C@@H](O)[C@@H](O)[C@H](O)[C@H](O)CO [mannitol]
- disruption of the blood brain barrier (blood brain barrier): disrupt the blood brain barrier long enough to allow methotrexate and other potent chemotherapeutic agents to penetrate brain tumors

Compound: Sodium vanadate
- GLUT-1 expression [1]: able to induce GLUT-1 expression
- extension of the half-life of GLUT-1 mRNA [1]: 2-3 times

Compound: Cc1ccc(C(=O)Nc2ccc(S(=O)(=O)O)c3cc(S(=O)(=O)O)cc(S(=O)(=O)O)c23)cc1NC(=O)c1cccc(NC(=O)Nc2cccc(C(=O)Nc3cc(C(=O)Nc4ccc(S(=O)(=O)O)c5cc(S(=O)(=O)O)cc(S(=O)(=O)O)c45)ccc3C)c2)c1 [suramin]
- glucose uptake and growth rate of the treated cells (GLUT-1 in cancer cells): significantly limits glucose uptake and the growth rate of the treated cells
